Results reported in US20140349970A1 (ABBVIE INC., priority 2009, published 2014).

These molecules were tested against T1, Syk catalytic domain (aa 356-635 with a C-terminal His-tag) (Homo sapiens, UniProt P43405) (assay: In vitro Syk kinase activity measured by trFRET, Syk catalytic domain). Settings: not given.
T1 construct: His-tag (C); made in house
Type: biochemical
Protocol: In Vitro Syk Kinase Activity Measured by Time-Resolved Fluorescence Resonance Energy Transfer (trFRET)
0.14 nM purified Syk catalytic domain (aa 356-635 with a C-terminal His-tag purified in-house by immobilized metal ion affinity chromatography) was mixed with 0.2 μM peptide substrate (biotin-TYR1, Sequence: Biotin-(Ahx)-GAEEEIYAAFFA-COOH) at varying inhibitor concentrations in reaction buffer: 50 mM MOPSO pH 6.5, 10 mM MgCl2, 2 mM MnCl2, 2.5 mM DTT, 0.01% BSA, 0.1 mM Na3VO4 and 0.001 mM ATP. After about 60 min incubation at rt, the reaction was quenched by addition of EDTA (final concentration: 100 mM) and developed by addition of revelation reagents (final approximate concentrations: 30 mM HEPES pH 7.0, 0.06% BSA, 0.006% Tween-20, 0.24 M KF, 80 ng/mL PT66K (europium labeled anti-phosphotyrosine antibody cat #61T66KLB Cisbio, Bedford, Mass.) and 0.6 μg/mL SAXL (Phycolink streptavidin-allophycocyanin acceptor, cat #PJ255, Prozyme, San Leandro, Calif.). The developed reaction was incubated in the dark either at about 4° C. for about 14 h or for about 60 min at rt, then read via a time-resolved fluorescence detector (Rubystar, BMG) using a 337 nm laser for excitation and monitoring emission wavelengths at 665 nm. Within the linear range of the assay, the observed signal at 665 nm was directly related to phosphorylated product and can be used to calculate the IC50 values.
MOPSO buffer contains: 50 mM MOPSO pH 6.5, 10 mM MgCl2, 2 mM MnCl2, 2.5 mM DTT, 0.01% BSA, and 0.1 mM Na3VO4 HEPES buffer contains: 50 mM HEPES pH 7.1, 2.5 mM DTT, 10 mM MgCl2, 2 mM MnCl2, 0.01% BSA, and 0.1 mM Na3VO4 MOPS buffer contains: 20 mM MOPS pH 7.2, 10 mM MgCl2, 5 mM EGTA, 5 mM Beta-phosphoglycerol, 1 mM Na3VO4, 0.01% Triton-X-100 and 1 mM DTT
Biotin-TYR1-peptide sequence: Biotin-(Ahx)-GAEEEIYAAFFA-COOH Biotin-TYR2-peptide sequence: Biotin-(Ahx)-AEEEYFFLFA-amide KinEASE 51 peptides were purchased from Cisbio (cat #62ST0PEB, Bedford, Mass.)
PT66K was purchased from Cisbio (cat #61T66KLB, Bedford, Mass.) EuSTK was purchased from Cisbio (cat #62ST0PEB, Bedford, Mass.) SAXL was purchased from Prozyme (cat #PJ25S, San Leandro, Calif.) Human T-Blasts IL-2 pSTAT5 Cellular Assay

First: CCCNC(=O)c1ccc(-c2ncn3c2cnc2[nH]ccc23)cc1 [AC.4.7]
Second: COc1ccc(-c2ncn3c2cnc2[nH]ccc23)cc1Cl [AC.4.9]
The IC50 of the first is higher: 0.1 to 1 µM for the first, < 0.1 µM for the second.

`COc1ccc(-c2ncn3c2cnc2[nH]ccc23)cc1OC` [AC.4.8] and `COc1ccc(-c2ncn3c2cnc2[nH]ccc23)cc1C` [AC.4.10] cannot be ordered by IC50: < 0.1 µM for the first, < 0.1 µM for the second.

First: CC(=O)N1CCC[C@@H]1c1nc(-c2ccc(C(C)(C)O)cc2)c2cnc3[nH]ccc3n12 [AC.5.1]
Second: CC(=O)N1CCC[C@H]1c1nc(-c2ccc(C(C)(C)O)cc2)c2cnc3[nH]ccc3n12 [AC.5.9]
The IC50 of the first is lower: 0.1 to 1 µM for the first, 1 to 10 µM for the second.

First: CC(=O)N[C@@H]1C[C@H](c2nc(-c3ccc(C(C)(C)O)cc3)c3cnc4[nH]ccc4n23)N(S(=O)(=O)C2CC2)C1 [AC.5.2]
Second: CC(C)(O)c1ccc(-c2nc(C3CC3)n3c2cnc2[nH]ccc23)cc1 [AC.5.8]
The IC50 of the first is higher: 0.1 to 1 µM for the first, < 0.1 µM for the second.

First: Cc1ncccc1-c1nc(-c2ccc(C(C)(C)O)cc2)c2cnc3[nH]ccc3n12 [AC.5.3]
Second: CC(C)(O)c1ccc(-c2nc(CN)n3c2cnc2[nH]ccc23)cc1 [AC.5.6, 2-(4-(1-(Aminomethyl)-6H-imidazo[1,5-a]pyrrolo[2,3-e]pyrazin-3-yl)phenyl)propan-2-ol]
The IC50 of the first is lower: 0.1 to 1 µM for the first, 1 to 10 µM for the second. The first is the more potent here.

`CC(C)(O)c1ccc(-c2ncn3c2cnc2[nH]cc(C4=CCNCC4)c23)cc1` [AC.5.4] and `CC(C)(O)c1ccc(-c2nc(C3CCOCC3)n3c2cnc2[nH]cc(C#N)c23)cc1` [AE.1.1] fall in the same range of IC50: 1 to 10 µM for the first, 1 to 10 µM for the second.

`CC(C)(O)c1ccc(-c2nc(CCCN)n3c2cnc2[nH]ccc23)cc1` [AC.5.5] and `CC(C)(O)c1ccc(-c2nc(CNC(=O)CO)n3c2cnc2[nH]ccc23)cc1` [AC.5.7] fall in the same range of IC50: 0.1 to 1 µM for the first, 0.1 to 1 µM for the second.

`Cc1nc(-c2ccc(CN3CCOCC3)cc2)c2cnc3[nH]ccc3n12` [AH.1.1] and `COc1ccc(-c2nn(CCO)c3c2cnc2[nH]ccc23)cc1` [AU.1.3] fall in the same range of IC50: 0.1 to 1 µM for the first, 0.1 to 1 µM for the second.

Going from `Cn1ncc2cnc3[nH]c(-c4cccn4CC(=O)O)cc3c21` [AN.1.2, 2-(2-(1-methyl-1,6-dihydropyrazolo[3,4-d]pyrrolo[2,3-b]pyridin-7-yl)-1H-pyrrol-1-yl)acetic acid] to `Cn1cc(-c2cc3c(ncc4cnn(C)c43)[nH]2)c2ccc(C(=O)O)cc21` [AN.1.3], the IC50 falls from > 10 µM to < 0.1 µM. The second is the more potent here.

First: Cn1nc(-c2ccc(S(C)(=O)=O)cc2)c2cnc3[nH]ccc3c21 [AR.1.1]
Second: COc1ccc(-c2nn(C)c3c2cnc2[nH]ccc23)cc1 [AU.1.1, 3-(4-methoxyphenyl)-1-methyl-1,6-dihydropyrazolo[3,4-d]pyrrolo[2,3-b]pyridine]
The IC50 of the first is higher: 0.1 to 1 µM for the first, < 0.1 µM for the second. The second is the more potent here.

In the case of `COc1ccc(-c2n[nH]c3c2cnc2[nH]ccc23)cc1` [AU.1.2], the IC50 is reported as < 0.1 µM.

Same assay, conditions: Syk catalytic domain (aa 356-635), trFRET, 0.001 mM ATP

Compared with `CC(C)(O)c1ccc(-c2nc(-c3cccnc3)n3c2cnc2[nH]ccc23)cc1` [AC.6.1], `CC(C)(O)c1ccc(-c2nc(-c3cccnc3CO)n3c2cnc2[nH]ccc23)cc1` [D.2.4] is higher in IC50: < 0.1 µM for the first, 0.1 to 1 µM for the second. The first is the more potent here.

`COc1ccc(-c2nn(C)c3c2cnc2[nH]cc(Br)c23)cc1` [AK.1, 8-Bromo-3-(4-methoxyphenyl)-1-methyl-1,6-dihydropyrazolo[3,4-d]pyrrolo[2,3-b]pyridine] and `CSc1ccc(-c2nn(C)c3c2cnc2[nH]ccc23)cc1` [AU.1, 1-Methyl-3-(4-(methylthio)phenyl)-1,6-dihydropyrazolo[3,4-d]pyrrolo[2,3-b]pyridine] cannot be ordered by IC50: < 0.1 µM for the first, < 0.1 µM for the second.

`Cn1cc(-c2cc3c(ncc4cnn(C)c43)[nH]2)c2cc(C(=O)O)ccc21` [AN.1, 1-Methyl-3-(1-methyl-1,6-dihydropyrazolo[3,4-d]pyrrolo[2,3-b]pyridin-7-yl)-1H-indole-5-carboxylic acid] and `Cn1cc(-c2cc3c(ncc4cnn(C)c43)[nH]2)c2cc(C(=O)NS(C)(=O)=O)ccc21` [Example 8, 1-Methyl-3-(1-methyl-1,6-dihydropyrazolo[3,4-d]pyrrolo[2,3-b]pyridin-7-yl)-N-(methylsulfonyl)-1H-indole-5-carboxamide] cannot be ordered by IC50: < 0.1 µM for the first, < 0.1 µM for the second.

First: Cc1nc(-c2ccc(C(C)(C)O)cc2)c2cnc3[nH]cc(Br)c3n12 [AY.1, 2-(4-(8-Bromo-1-methyl-6H-imidazo[1,5-a]pyrrolo[2,3-e]pyrazin-3-yl)phenyl)propan-2-ol]
Second: Cc1nc(-c2ccc(C(C)(C)O)cc2)c2cnc3[nH]c(Br)cc3n12 [Example 11, 2-(4-(7-Bromo-1-methyl-6H-imidazo[1,5-a]pyrrolo[2,3-e]pyrazin-3-yl)phenyl)propan-2-ol]
The IC50 of the first is lower: < 0.1 µM for the first, 0.1 to 1 µM for the second. The first is the more potent here.

Compared with `CC(C)(O)c1ccc(-c2nc(C3CCCNC3)n3c2cnc2[nH]ccc23)cc1` (stereo not drawn) [D.2.1], `CC(C)(O)c1ccc(-c2nc([C@@H]3CCCN(C(=O)C4(C#N)CC4)C3)n3c2cnc2[nH]ccc23)cc1` [D.2.2] is higher in IC50: < 0.1 µM for the first, 0.1 to 1 µM for the second.

First: Cn1ncc2cnc3[nH]c(-c4ccc(C(C)(C)O)cc4)c(C#N)c3c21 [D.2.3]
Second: CCc1c(-c2ccc(C(C)(C)O)cc2)[nH]c2ncc3nccn3c12 [Example 4, 2-(4-(1-Ethyl-3H-imidazo[1,2-a]pyrrolo[2,3-e]pyrazin-2-yl)phenyl)propan-2-ol]
The IC50 of the first is lower: < 0.1 µM for the first, 0.1 to 1 µM for the second.

Compared with `CC(C)(O)c1ccc(-c2nc(-c3cccnc3C#N)n3c2cnc2[nH]ccc23)cc1` [D.3.1], `CC(C)(O)c1ccc(-c2nc(-c3ccccc3CN)n3c2cnc2[nH]ccc23)cc1` [Example 7, 2-(4-(1-(2-(Aminomethyl)phenyl)-6H-imidazo[1,5-a]pyrrolo[2,3-e]pyrazin-3-yl)phenyl)propan-2-ol] is higher in IC50: < 0.1 µM for the first, 0.1 to 1 µM for the second. The first is the more potent here.

First: CN(C)CCNC(=O)Cc1cccc(-c2cc3c(ncc4cnn(C)c43)[nH]2)c1 [Example 1, N-(2-(dimethylamino)ethyl)-2-(3-(1-methyl-1,6-dihydropyrazolo[3,4-d]pyrrolo[2,3-b]pyridin-7-yl)phenyl)acetamide]
Second: COc1ccc2c(c1)c(-c1cc3c(ncc4cnc(CCCNC(C)=O)n43)[nH]1)cn2C [Example 5, N-(3-(7-(5-Methoxy-1-methyl-1H-indol-3-yl)-6H-imidazo[1,5-a]pyrrolo[2,3-e]pyrazin-1-yl)propyl)acetamide]
The IC50 of the first is higher: 0.1 to 1 µM for the first, < 0.1 µM for the second. The second is the more potent here.

Compared with `c1ccc(-c2nc(C3CCCCC3)n3c2cnc2[nH]ccc23)cc1` [Example 2, 1-Cyclohexyl-3-phenyl-6H-imidazo[1,5-a]pyrrolo[2,3-e]pyrazine], `O=C(O)/C=C/c1nc(C2CCCCC2)n2c1cnc1[nH]ccc12` [Example 3, (E)-3-(1-Cyclohexyl-6H-imidazo[1,5-a]pyrrolo[2,3-e]pyrazin-3-yl)acrylic acid] is lower in IC50: 1 to 10 µM for the first, 0.1 to 1 µM for the second. The second is the more potent here.

`CC(C)(O)c1ccc(-c2nc(-c3cccnc3C#N)n3c2cnc2[nH]ccc23)cc1` [Example 6, 3-(3-(4-(2-Hydroxypropan-2-yl)phenyl)-6H-imidazo[1,5-a]pyrrolo[2,3-e]pyrazin-1-yl)picolinonitrile] and `COc1ccc2c(c1)c(-c1cc3c(ncc4cnc(C)n43)n1COP(=O)(O)O)cn2C` [Example 10, (7-(5-Methoxy-1-methyl-1H-indol-3-yl)-1-methyl-6H-imidazo[1,5-a]pyrrolo[2,3-e]pyrazin-6-yl) methyl disodium phosphate] fall in the same range of IC50: 1 to 10 µM for the first, 1 to 10 µM for the second.

With `COc1ccc2c(c1)c(-c1cc3c4c(cnc3n1COP(=O)(O)O)cnn4C)cn2C` [Example 9, (7-(5-Methoxy-1-methyl-1H-indol-3-yl)-1-methylpyrazolo[3,4-d]pyrrolo[2,3-b]pyridin-6(1H)-yl)methyl dihydrogen phosphate] the IC50 was 1 to 10 µM.
